# Measured values taken from PMC7531004, “Discovery of gramicidin A analogues with altered activities by multidimensional screening of a one-bead-one-compound library” (Nature Communications, 2020).
# Where a SMILES comes first, the peptide text is derived from it. [ ]: non-standard residue; d: D form. The star is where a group is joined. NHCH2CH2OH = OCCN*; For = O=C*
# Legend:
# [1] = cell viability/%
# How it was run: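 First, library peptide stocks are diluted 250-fold in RPMI1640 with 10% heat-inactivated FBS. Next, they are mixed with P388 cells to give 1 × 10^4 cells/mL and incubated 92 h at 37 °C, 5% CO2. Finally, viability (%) is scored by WST-1 absorbance at 415 nm.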
# [2] = tested on: Streptococcus pyogenes SSI-9; experiment: Antibacterial activity assay of bead-derived peptides (three concentrations); format: cell-based; set-up: key: +++: inhibition by the 640-fold diluted peptide solution; ++: inhibition by the 160-fold diluted solution; +: inhibition by the 40-fold diluted solution; -: no inhibition; conditions: S. pyogenes, bead-derived peptide solution, three concentrations
# How it was run: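 Bead-derived library peptide stocks in DMSO were tested undiluted and after 4- and 16-fold DMSO dilution against S. pyogenes SSI-9 (2 × 10^5 CFU/well) in cation-adjusted Mueller Hinton Broth with 5% laked horse blood. After 18 h at 37 °C, wells were scored for precipitation of grown cells.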
# [3] = H+/Na+ transport assay of bead-derived peptides (one-point); format: biochemical; set-up: key: relative activity; mean of two control wells = 1.00; conditions: bead-derived peptide solution, EYPC/EYPG LUVs;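 further: relative to parent gramicidin A activity set to 1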
# How it was run: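 One-point screen: peptide + pyranine-loaded LUVs, 30 min RT with vortexing, 96-well. Read-out is fluorescence intensity scaled as 100 × (Ix – I0)/(Imax – I0). Imax from Triton X-100, I0 from untreated vesicles, and the mean of the two control wells is set to 1.00.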
SMILES,viability [1],antibacterial activity [2],H+/Na+ transport activity normalized against the value of 1 (1.00) [3]
CNC(=O)C[C@@H](NC(=O)[C@H](Cc1c[nH]c2ccccc12)NC(=O)[C@H](NC(=O)[C@H](Cc1c[nH]c2ccccc12)NC(=O)[C@@H](CC(C)C)NC(=O)[C@H](Cc1c[nH]c2ccccc12)NC(=O)[C@H](NC(=O)[C@@H](NC(=O)[C@@H](CC(C)C)NC(=O)[C@H](C)NC(=O)[C@H](NC(=O)[C@H](C)NC(=O)CNC(=O)[C@@H](NC=O)C(C)C)C(C)C)C(C)C)C(C)C)C(C)C)C(=O)N[C@@H](Cc1c[nH]c2ccccc12)C(=O)NCCO [compound 2425] (For-VGA[dV]A[dL]V[dV]W[dL]W[dV]W[dD](NHMe)W-NHCH2CH2OH),100%,-,1.07
CC(C)C[C@@H](NC(=O)[C@H](C)NC(=O)CNC(=O)[C@@H](NC=O)C(C)C)C(=O)N[C@@H](C)C(=O)N[C@@H](C(=O)N[C@H](C(=O)N[C@H](CC(C)C)C(=O)N[C@@H](Cc1c[nH]c2ccccc12)C(=O)N[C@@H](C(=O)N[C@@H](Cc1c[nH]c2ccccc12)C(=O)N[C@@H](C(=O)N[C@@H](Cc1c[nH]c2ccccc12)C(=O)N[C@H](CC(C)C)C(=O)N[C@@H](Cc1c[nH]c2ccccc12)C(=O)NCCO)C(C)C)[C@H](C)O)C(C)C)C(C)C [compound 2236] (For-VGA[dL]A[dV]V[dL]W[dT]W[dV]W[dL]W-NHCH2CH2OH),100%,+,1.03
CC(C)C[C@@H](NC(=O)[C@H](C)NC(=O)CNC(=O)[C@@H](NC=O)C(C)C)C(=O)N[C@@H](C)C(=O)N[C@@H](C(=O)N[C@H](C(=O)N[C@@H](C(=O)N[C@@H](Cc1c[nH]c2ccccc12)C(=O)N[C@@H](C(=O)N[C@@H](Cc1c[nH]c2ccccc12)C(=O)N[C@H](CC(C)C)C(=O)N[C@@H](Cc1c[nH]c2ccccc12)C(=O)N[C@H](CC(C)C)C(=O)N[C@@H](Cc1c[nH]c2ccccc12)C(=O)NCCO)C(C)C)[C@H](C)O)C(C)C)C(C)C [compound 2290] (For-VGA[dL]A[dV]V[dT]W[dV]W[dL]W[dL]W-NHCH2CH2OH),100%,-,1.14
CC(C)C[C@@H](NC(=O)[C@H](C)NC(=O)CNC(=O)[C@@H](NC=O)C(C)C)C(=O)N[C@@H](C)C(=O)N[C@H](CC(C)C)C(=O)N[C@H](C(=O)N[C@H](CC(C)C)C(=O)N[C@@H](Cc1c[nH]c2ccccc12)C(=O)N[C@H](CC(C)C)C(=O)N[C@@H](Cc1c[nH]c2ccccc12)C(=O)N[C@H](CC(C)C)C(=O)N[C@@H](Cc1c[nH]c2ccccc12)C(=O)N[C@@H](C(=O)N[C@@H](Cc1c[nH]c2ccccc12)C(=O)NCCO)[C@H](C)O)C(C)C [compound 5006] (For-VGA[dL]A[dL]V[dL]W[dL]W[dL]W[dT]W-NHCH2CH2OH),100%,-,1.12
CC(C)C[C@@H](NC(=O)[C@H](C)NC(=O)[C@H](NC(=O)[C@H](C)NC(=O)CNC(=O)[C@@H](NC=O)C(C)C)[C@H](C)O)C(=O)N[C@H](C(=O)N[C@@H](C(=O)N[C@@H](Cc1c[nH]c2ccccc12)C(=O)N[C@@H](C(=O)N[C@@H](Cc1c[nH]c2ccccc12)C(=O)N[C@@H](C(=O)N[C@@H](Cc1c[nH]c2ccccc12)C(=O)N[C@H](CC(C)C)C(=O)N[C@@H](Cc1c[nH]c2ccccc12)C(=O)NCCO)C(C)C)[C@H](C)O)C(C)C)C(C)C [compound 7225] (For-VGA[dT]A[dL]V[dV]W[dT]W[dV]W[dL]W-NHCH2CH2OH),100%,-,1.14
CC(C)C[C@@H](NC(=O)[C@H](Cc1c[nH]c2ccccc12)NC(=O)[C@H](NC(=O)[C@@H](NC(=O)[C@H](NC(=O)[C@H](C)NC(=O)[C@H](NC(=O)[C@H](C)NC(=O)CNC(=O)[C@@H](NC=O)C(C)C)C(C)C)[C@H](C)O)C(C)C)C(C)C)C(=O)N[C@@H](Cc1c[nH]c2ccccc12)C(=O)N[C@@H](C(=O)N[C@@H](Cc1c[nH]c2ccccc12)C(=O)N[C@@H](C(=O)N[C@@H](Cc1c[nH]c2ccccc12)C(=O)NCCO)C(C)C)C(C)C [compound 9055] (For-VGA[dV]A[dT]V[dV]W[dL]W[dV]W[dV]W-NHCH2CH2OH),83.5%,-,1.01
CC(C)C[C@@H](NC(=O)[C@H](Cc1c[nH]c2ccccc12)NC(=O)[C@H](NC(=O)[C@H](Cc1c[nH]c2ccccc12)NC(=O)[C@@H](CC(C)C)NC(=O)[C@H](Cc1c[nH]c2ccccc12)NC(=O)[C@H](NC(=O)[C@@H](NC(=O)[C@H](NC(=O)[C@H](C)NC(=O)[C@H](NC(=O)[C@H](C)NC(=O)CNC(=O)[C@@H](NC=O)C(C)C)C(C)C)C(C)C)C(C)C)[C@H](C)O)C(C)C)C(=O)N[C@@H](Cc1c[nH]c2ccccc12)C(=O)NCCO [compound 2829] (For-VGA[dV]A[dV]V[dT]W[dL]W[dV]W[dL]W-NHCH2CH2OH),100%,-,1.13
CC(C)C[C@@H](NC(=O)[C@H](Cc1c[nH]c2ccccc12)NC(=O)[C@@H](CC(C)C)NC(=O)[C@H](Cc1c[nH]c2ccccc12)NC(=O)[C@H](NC(=O)[C@H](Cc1c[nH]c2ccccc12)NC(=O)[C@H](NC(=O)[C@@H](NC(=O)[C@H](NC(=O)[C@H](C)NC(=O)[C@H](NC(=O)[C@H](C)NC(=O)CNC(=O)[C@@H](NC=O)C(C)C)C(C)C)C(C)C)C(C)C)C(C)C)[C@H](C)O)C(=O)N[C@@H](Cc1c[nH]c2ccccc12)C(=O)NCCO [compound 10042] (For-VGA[dV]A[dV]V[dV]W[dT]W[dL]W[dL]W-NHCH2CH2OH),100%,-,1.06
CC(C)C[C@@H](NC(=O)[C@H](C)NC(=O)[C@H](NC(=O)[C@H](C)NC(=O)CNC(=O)[C@@H](NC=O)C(C)C)C(C)C)C(=O)N[C@H](C(=O)N[C@@H](C(=O)N[C@@H](Cc1c[nH]c2ccccc12)C(=O)N[C@@H](C(=O)N[C@@H](Cc1c[nH]c2ccccc12)C(=O)N[C@@H](C(=O)N[C@@H](Cc1c[nH]c2ccccc12)C(=O)N[C@@H](C(=O)N[C@@H](Cc1c[nH]c2ccccc12)C(=O)NCCO)C(C)C)C(C)C)C(C)C)[C@H](C)O)C(C)C [compound 3492] (For-VGA[dV]A[dL]V[dT]W[dV]W[dV]W[dV]W-NHCH2CH2OH),100%,-,1.12
CC(C)C[C@@H](NC(=O)[C@H](C)NC(=O)CNC(=O)[C@@H](NC=O)C(C)C)C(=O)N[C@@H](C)C(=O)N[C@@H](C(=O)N[C@H](C(=O)N[C@@H](C(=O)N[C@@H](Cc1c[nH]c2ccccc12)C(=O)N[C@H](CC(C)C)C(=O)N[C@@H](Cc1c[nH]c2ccccc12)C(=O)N[C@@H](C(=O)N[C@@H](Cc1c[nH]c2ccccc12)C(=O)N[C@H](CC(C)C)C(=O)N[C@@H](Cc1c[nH]c2ccccc12)C(=O)NCCO)C(C)C)[C@H](C)O)C(C)C)C(C)C [compound 1711] (For-VGA[dL]A[dV]V[dT]W[dL]W[dV]W[dL]W-NHCH2CH2OH),100%,-,1.01
